Test results as given in publication PMC11983575, “Study on the synthesis and biological activity of kojic acid triazol thiosemicarbazide Schiff base derivatives” (Journal of Enzyme Inhibition and Medicinal Chemistry, 2025).

Tests used:
[1] = ABTS radical cation scavenging activity assay; details: 734 nm; read-out: ABTS+/IC50 (μM) ± SD
Protocol: ABTS free radical scavenging activity was performed according to the procedure described by Zhang et al.[40] Test solution of ABTS decolourisation assay was prepared by mixing 2.45 mM potassium persulfate and 7 mM ABTS at 8:12 volume/volume ratio. The working solution was kept in the dark at room temperature for 12–18 h. Before ABTS radical scavenging test, the ABTS test solution was diluted with DMSO to absorbance of 0.7 (±0.02) at 734 nm. One millilitre of diluted ABTS test solution was added to 10 μl of DMSO or test sample. After initial mixing, the working solution was kept in the dark at room temperature for 2–6 min, and the absorbance was measured at 734 nm. This test was carried out in triplicate. DMSO was used as a control. Ascorbic acid was used as antioxidant standard for comparison of the activity. The absorbance of test samples was calculated by the following formula. ABTS scavenging ability %=absorbance of standard−absorbance of sample/absorbance of standard×100.

[2] = target: mushroom tyrosinase (Agaricus bisporus, UniProt C7FF04); test: In vitro mushroom tyrosinase inhibition (L-DOPA substrate); type: biochemical; details: 475 nm, read-out: IC50 (μM) ± SD, inhibitory tyrosinase activity
Protocol: The mushroom tyrosinase inhibitory activity was determined according to previous described method. Briefly, 168 μl of phosphate buffer (0.1 M, pH 6.8), 10 μl of mushroom tyrosinase (0.5 mg/ml, Sigma Chemical, St. Louis, MO) and 2 μl of the inhibitor solution were placed in the wells of a 96-well micro plate. After pre-incubation for 20 min at 37 °C, 20 μl of 2.0 mg/ml L-DOPA (3,4-dihydroxyphenylalanine, Sigma Chemical, St. Louis, MO) was added and the enzyme activity was measured at 475 nm every 60 s for 180 s in a Microplate Reader (Bio-Rad Laboratories, Inc., Hercules, CA). Kojic acid and phosphate buffer were respectively used as positive and negative control. The extent of inhibition by the test compounds was expressed as the percentage of concentration necessary to achieve 50% inhibition (IC50). The percentage of inhibition was calculated as follows: inhibitory rate (%) = [Ac − At)/Ac] × 100. Ac is the absorbance of the negative control and At is the absorbance of the test compound. Each concentration was analysed in three independent experiments run in triplicate. The IC50 values were determined by the data analysis software GraphPad Prism 8 (La Jolla, CA).
The tyrosinase inhibition measurements of compounds 6a–6x were carried out using L-DOPA as substrate. Kojic acid was selected as a positive control compound. […]. […] Moreover, inhibitory activity of compound with hydroxyl group at papa position is better than the inhibitory activity of compound with hydroxyl group at meta position, and inhibitory activity of compound with hydroxyl group at meta position is better than the inhibitory activity of compound with hydroxyl group at ortho position. […]. […] In addition, with the increase of atomic radius, the inhibitory activity gradually decreases. (3) The inhibitory activity of alkoxy substituted compound is better than that of alkyl substituted compound. (4) Comparing the tyrosinase inhibitory activity of compounds with halogen atom (6b–6d, 6q–6s) and compounds with methyl or methoxy (6e–6f, 6t–6u), when the hydrogen (R^2) was replaced by the methyl (R^2), the inhibitory activity was decreased.

[3] = DPPH free radical scavenging activity assay; details: DPPH 150 μM, 30 min, 517 nm; read-out: DPPH/IC50 (μM) ± SD
Protocol: The anti-oxidation effect on DPPH radical was determined by a slightly modified version of a previously described DPPH radical scavenging assay. Reaction mixtures consisted of 100 μl of DPPH (150 μM), 20 μl of increasing concentration of test compounds and the volume was adjusted to 200 μl in each well with DMSO. The assay solution was then incubated at room temperature (25 °C) for 30 min in the dark. After the incubation, absorbance at 517 nm was measured by using UV-2600 spectrophotometer. The experiments were undertaken in triplicate. DMSO was used as a control. Ascorbic acid was used as antioxidant standard for comparison of the activity. The calculation of DPPH radical scavenging activity was followed by this formula: DPPH radical scavenging activity %=absorbance of standard−absorbance of sample/Absorbance of standard×100

Chain of mushroom tyrosinase (C7FF04 1-392): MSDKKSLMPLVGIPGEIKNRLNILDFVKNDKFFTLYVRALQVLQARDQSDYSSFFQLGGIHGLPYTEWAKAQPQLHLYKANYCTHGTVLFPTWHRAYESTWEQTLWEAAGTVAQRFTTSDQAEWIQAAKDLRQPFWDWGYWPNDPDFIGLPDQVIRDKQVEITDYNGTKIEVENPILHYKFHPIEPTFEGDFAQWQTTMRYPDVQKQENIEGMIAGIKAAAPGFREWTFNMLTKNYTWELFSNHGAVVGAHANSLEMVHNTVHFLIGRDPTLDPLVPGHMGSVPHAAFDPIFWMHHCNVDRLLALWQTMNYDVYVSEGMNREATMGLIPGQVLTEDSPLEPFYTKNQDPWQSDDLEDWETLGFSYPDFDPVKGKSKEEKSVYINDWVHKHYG

For “2-(1-(4-((1-((5-Hydroxy-4-oxo-4H-pyran-2-yl)methyl)-1H-1,2,3-triazol-5-yl)methoxy)-3-methylphenyl)ethylidene)hydrazinecarbothioamide [Compound 6x]”, the IC50 [1] was 19.94 ± 0.081 µM, the IC50 [2] was 2.35 ± 0.021 µM and the IC50 [3] was 159.2 ± 0.061 µM.
“2-(3-((1-((5-Hydroxy-4-oxo-4H-pyran-2-yl)methyl)-1H-1,2,3-triazol-5-yl)methoxy)benzylidene)hydrazinecarbothioamide [Compound 6l]” gave an IC50 [1] of 40.23 ± 0.071 µM, an IC50 [2] of 5.45 ± 0.077 µM and an IC50 [3] of 81.67 ± 0.073 µM.
For “2-(4-((1-((5-Hydroxy-4-oxo-4H-pyran-2-yl)methyl)-1H-1,2,3-triazol-5-yl)methoxy)-3-methoxybenzylidene)hydrazinecarbothioamide [Compound 6n]”, the IC50 [1] was 44.4 ± 0.068 µM, the IC50 [2] was 8.4 ± 0.009 µM and the IC50 [3] was 176.2 ± 0.061 µM.
“2-(4-((1-((5-Hydroxy-4-oxo-4H-pyran-2-yl)methyl)-1H-1,2,3-triazol-5-yl)methoxy)-3-methylbenzylidene)hydrazinecarbothioamide [Compound 6o]” showed an IC50 [1] of 17.95 ± 0.048 µM, an IC50 [2] of 12.38 ± 0.014 µM and an IC50 [3] of 193.9 ± 0.022 µM.
`NC(=S)NN=Cc1ccccc1OCc1cn(Cc2cc(=O)c(O)co2)nn1` [Compound 6a, (2-((1-((5-Hydroxy-4-oxo-4H-pyran-2-yl)methyl)-1H-1,2,3-triazol-4-yl)methoxy)benzylidene)hydrazinecarbothioamide] showed an IC50 [1] of 43.89 ± 0.034 µM and an IC50 [3] of 173.2 ± 0.058 µM.
Work on `NC(=S)NN=Cc1ccc(F)cc1OCc1cn(Cc2cc(=O)c(O)co2)nn1` [Compound 6b, 2-(4-Fluoro-2-((1-((5-hydroxy-4-oxo-4H-pyran-2-yl)methyl)-1H-1,2,3-triazol-4-yl)methoxy)benzylidene)hydrazinecarbothioamide] yielded an IC50 [1] of 63.1 ± 0.042 µM and an IC50 [3] of 105.4 ± 0.115 µM.
`NC(=S)NN=Cc1ccc(Cl)cc1OCc1cn(Cc2cc(=O)c(O)co2)nn1` [Compound 6c, 2-(4-Chloro-2-((1-((5-hydroxy-4-oxo-4H-pyran-2-yl)methyl)-1H-1,2,3-triazol-4-yl)methoxy)benzylidene)hydrazinecarbothioamide] gave an IC50 [1] of 72.03 ± 0.084 µM and an IC50 [3] of 104.7 ± 0.088 µM.
Work on `NC(=S)NN=Cc1ccc(Br)cc1OCc1cn(Cc2cc(=O)c(O)co2)nn1` [Compound 6d, 2-(4-Bromo-2-((1-((5-hydroxy-4-oxo-4H-pyran-2-yl)methyl)-1H-1,2,3-triazol-4-yl)methoxy)benzylidene)hydrazinecarbothioamide] yielded an IC50 [1] of 91.1 ± 0.033 µM and an IC50 [3] of 71.43 ± 0.036 µM.
With `COc1ccc(C=NNC(N)=S)c(OCc2cn(Cc3cc(=O)c(O)co3)nn2)c1` [Compound 6e, 2-(2-((1-((5-Hydroxy-4-oxo-4H-pyran-2-yl)methyl)-1H-1,2,3-triazol-4-yl)methoxy)-4-methoxybenzylidene)hydrazinecarbothioamide] the IC50 [1] was 8.24 ± 0.048 µM and the IC50 [3] was 87.47 ± 0.144 µM.
Compound `Cc1ccc(C=NNC(N)=S)c(OCc2cn(Cc3cc(=O)c(O)co3)nn2)c1` [Compound 6f, 2-(2-((1-((5-Hydroxy-4-oxo-4H-pyran-2-yl)methyl)-1H-1,2,3-triazol-4-yl)methoxy)-4-methylbenzylidene)hydrazinecarbothioamide] has an IC50 [1] of 34.95 ± 0.061 µM and an IC50 [3] of 99.6 ± 0.056 µM.
`NC(=S)NN=Cc1cc(Cl)ccc1OCc1cn(Cc2cc(=O)c(O)co2)nn1` [Compound 6g, 2-(5-Chloro-2-((1-((5-hydroxy-4-oxo-4H-pyran-2-yl)methyl)-1H-1,2,3-triazol-4-yl)methoxy)benzylidene)hydrazinecarbothioamide] showed an IC50 [1] of 52.65 ± 0.109 µM and an IC50 [3] of 133.8 ± 0.048 µM.
Work on `NC(=S)NN=Cc1cc(Br)ccc1OCc1cn(Cc2cc(=O)c(O)co2)nn1` [Compound 6h, 2-(5-Bromo-2-((1-((5-hydroxy-4-oxo-4H-pyran-2-yl)methyl)-1H-1,2,3-triazol-4-yl)methoxy)benzylidene)hydrazinecarbothioamide] yielded an IC50 [1] of 68.49 ± 0.091 µM and an IC50 [3] of 118.4 ± 0.049 µM.
`Cc1ccc(OCc2cn(Cc3cc(=O)c(O)co3)nn2)c(C=NNC(N)=S)c1` [Compound 6i, 2-(2-((1-((5-Hydroxy-4-oxo-4H-pyran-2-yl)methyl)-1H-1,2,3-triazol-4-yl)methoxy)-5-methylbenzylidene)hydrazinecarbothioamide] showed an IC50 [1] of 61.66 ± 0.091 µM and an IC50 [3] of 248.1 ± 0.041 µM.
`CCOc1cccc(C=NNC(N)=S)c1OCc1cn(Cc2cc(=O)c(O)co2)nn1` [Compound 6j, 2-(3-Ethoxy-2-((1-((5-hydroxy-4-oxo-4H-pyran-2-yl)methyl)-1H-1,2,3-triazol-4-yl)methoxy)benzylidene)hydrazinecarbothioamide] gave an IC50 [1] of 6.78 ± 0.082 µM and an IC50 [3] of 25.6 ± 0.031 µM.
In the case of `CC(C)(C)c1cccc(C=NNC(N)=S)c1OCc1cn(Cc2cc(=O)c(O)co2)nn1` [Compound 6k, 2-(3-(Tert-butyl)-2-((1-((5-hydroxy-4-oxo-4H-pyran-2-yl)methyl)-1H-1,2,3-triazol-4-yl)methoxy)benzylidene)hydrazinecarbothioamide], the IC50 [1] is reported as 9.31 ± 0.022 µM and the IC50 [3] is reported as 49.17 ± 0.077 µM.
Compound `CC(=NNC(N)=S)c1ccccc1OCc1cn(Cc2cc(=O)c(O)co2)nn1` [Compound 6p, 2-(1-(2-((1-((5-Hydroxy-4-oxo-4H-pyran-2-yl)methyl)-1H-1,2,3-triazol-4-yl)methoxy)phenyl)ethylidene)hydrazinecarbothioamide] has an IC50 [1] of 3.19 ± 0.034 µM and an IC50 [3] of 10.53 ± 0.014 µM.
In the case of `CC(=NNC(N)=S)c1ccc(F)cc1OCc1cn(Cc2cc(=O)c(O)co2)nn1` [Compound 6q, 2-(1-(4-Fluoro-2-((1-((5-hydroxy-4-oxo-4H-pyran-2-yl)methyl)-1H-1,2,3-triazol-4-yl)methoxy)phenyl)ethylidene)hydrazinecarbothioamide], the IC50 [1] is reported as 6.61 ± 0.054 µM and the IC50 [3] is reported as 47.05 ± 0.042 µM.
Work on `CC(=NNC(N)=S)c1ccc(Cl)cc1OCc1cn(Cc2cc(=O)c(O)co2)nn1` [Compound 6r, 2-(1-(4-Chloro-2-((1-((5-hydroxy-4-oxo-4H-pyran-2-yl)methyl)-1H-1,2,3-triazol-4-yl)methoxy)phenyl)ethylidene)hydrazinecarbothioamide] yielded an IC50 [1] of 4.49 ± 0.103 µM and an IC50 [3] of 53.54 ± 0.088 µM.
For `CC(=NNC(N)=S)c1ccc(Br)cc1OCc1cn(Cc2cc(=O)c(O)co2)nn1` [Compound 6s, 2-(1-(4-Bromo-2-((1-((5-hydroxy-4-oxo-4H-pyran-2-yl)methyl)-1H-1,2,3-triazol-4-yl)methoxy)phenyl)ethylidene)hydrazinecarbothioamide], the IC50 [1] was 11.29 ± 0.033 µM and the IC50 [3] was 105.8 ± 0.092 µM.
Work on `COc1ccc(C(C)=NNC(N)=S)c(OCc2cn(Cc3cc(=O)c(O)co3)nn2)c1` [Compound 6t, 2-(1-(2-((1-((5-Hydroxy-4-oxo-4H-pyran-2-yl)methyl)-1H-1,2,3-triazol-4-yl)methoxy)-4-methoxyphenyl)ethylidene)hydrazinecarbothioamide] yielded an IC50 [1] of 3.91 ± 0.064 µM and an IC50 [3] of 86.3 ± 0.058 µM.
In the case of `CC(=NNC(N)=S)c1ccc(C)cc1OCc1cn(Cc2cc(=O)c(O)co2)nn1` [Compound 6u, 2-(1-(2-((1-((5-Hydroxy-4-oxo-4H-pyran-2-yl)methyl)-1H-1,2,3-triazol-4-yl)methoxy)-4-methylphenyl)ethylidene)hydrazinecarbothioamide], the IC50 [1] is reported as 5.27 ± 0.078 µM and the IC50 [3] is reported as 55.7 ± 0.154 µM.
For `CC(=NNC(N)=S)c1cccc(OCc2cn(Cc3cc(=O)c(O)co3)nn2)c1` [Compound 6v, 2-(1-(3-((1-((5-Hydroxy-4-oxo-4H-pyran-2-yl)methyl)-1H-1,2,3-triazol-4-yl)methoxy)phenyl)ethylidene)hydrazinecarbothioamide], the IC50 [1] was 3.2 ± 0.091 µM and the IC50 [3] was 16.27 ± 0.093 µM.
Work on `O=C1O[C@H]([C@@H](O)CO)C(O)=C1O` [Vitamin C, Ascorbic acid, reference compound] yielded an IC50 [1] of 55.48 ± 0.04 µM and an IC50 [3] of 27.25 ± 0.015 µM.
